A short description of data set [1]: The drug is tested on Z-028 corresponding to mouse gut metagenome with ENA study accession number: PRJEB37062 and ENA sample accession number: ERS12561827 for biotransformation under anaerobic condition. The drug concentrations were measured over 9 timepoints collected between 0 and 24 hours of incubation by liquid-chromatography-coupled mass spectrometry (LC–MS). As to conditions: 2 µM.

Data set [2] can be described thus: The drug is tested on WLS-077 corresponding to human gut metagenome with ENA study accession number: PRJEB37062 and ENA sample accession number: ERS12561750 for biotransformation under anaerobic condition. The drug concentrations were measured over 9 timepoints collected between 0 and 24 hours of incubation by liquid-chromatography-coupled mass spectrometry (LC–MS). As to conditions: 2 µM.

Data set [3] can be described thus: The drug is tested on WLS-310 corresponding to human gut metagenome with ENA study accession number: PRJEB37062 and ENA sample accession number: ERS12561785 for biotransformation under anaerobic condition. The drug concentrations were measured over 9 timepoints collected between 0 and 24 hours of incubation by liquid-chromatography-coupled mass spectrometry (LC–MS). As to conditions: 2 µM.

Data set [4] in a line: The drug is tested on WLS-240 corresponding to human gut metagenome with ENA study accession number: PRJEB37062 and ENA sample accession number: ERS12561773 for biotransformation under anaerobic condition. The drug concentrations were measured over 9 timepoints collected between 0 and 24 hours of incubation by liquid-chromatography-coupled mass spectrometry (LC–MS). As to conditions: 2 µM.

Data set [5] can be described thus: The drug is tested on Z-029 corresponding to rat gut metagenome with ENA study accession number: PRJEB37062 and ENA sample accession number: ERS12561828 for biotransformation under anaerobic condition. The drug concentrations were measured over 9 timepoints collected between 0 and 24 hours of incubation by liquid-chromatography-coupled mass spectrometry (LC–MS). As to conditions: 2 µM.

For data set [6] the following is noted: human gut metagenome, 24 h, 2 µM.
For data set [7] the following is noted: human gut metagenome, 24 h, 2 µM. The source holds these as a separate data set.
Data set [8] is described as follows: The drug is tested on Z-007 corresponding to rat gut metagenome with ENA study accession number: PRJEB37062 and ENA sample accession number: ERS12561807 for biotransformation under anaerobic condition. The drug concentrations were measured over 9 timepoints collected between 0 and 24 hours of incubation by liquid-chromatography-coupled mass spectrometry (LC–MS). As to conditions: 2 µM.

For data set [9] the following is noted: human gut metagenome, 24 h, 2 µM. The source holds these as a separate data set.
Data set [10] can be described thus: The drug is tested on WLS-098 corresponding to human gut metagenome with ENA study accession number: PRJEB37062 and ENA sample accession number: ERS12561754 for biotransformation under anaerobic condition. The drug concentrations were measured over 9 timepoints collected between 0 and 24 hours of incubation by liquid-chromatography-coupled mass spectrometry (LC–MS). As to conditions: 2 µM.

The conditions of data set [11]: human gut metagenome, 24 h, 2 µM. This is another data set of the same source.
A short description of data set [12]: The drug is tested on Z-027 corresponding to metagenome with ENA study accession number: PRJEB37062 and ENA sample accession number: ERS12561826 for biotransformation under anaerobic condition. The drug concentrations were measured over 9 timepoints collected between 0 and 24 hours of incubation by liquid-chromatography-coupled mass spectrometry (LC–MS). As to conditions: 2 µM.

Data set [13] is described as follows: The drug is tested on Z-003 corresponding to pig gut metagenome with ENA study accession number: PRJEB37062 and ENA sample accession number: ERS12561803 for biotransformation under anaerobic condition. The drug concentrations were measured over 9 timepoints collected between 0 and 24 hours of incubation by liquid-chromatography-coupled mass spectrometry (LC–MS). As to conditions: 2 µM.

Data set [14] can be described thus: The drug is tested on WLS-006 corresponding to human gut metagenome with ENA study accession number: PRJEB37062 and ENA sample accession number: ERS12561741 for biotransformation under anaerobic condition. The drug concentrations were measured over 9 timepoints collected between 0 and 24 hours of incubation by liquid-chromatography-coupled mass spectrometry (LC–MS). As to conditions: 2 µM.

For data set [15] the following is noted: human gut metagenome, 24 h, 2 µM. The source holds these as a separate data set.
For data set [16] the following is noted: human gut metagenome, 24 h, 2 µM. The source holds these as a separate data set.
For data set [17] the following is noted: human gut metagenome, 24 h, 2 µM. The source holds these as a separate data set.
Data set [18] is described as follows: The drug is tested on Z-018 corresponding to pig gut metagenome with ENA study accession number: PRJEB37062 and ENA sample accession number: ERS12561817 for biotransformation under anaerobic condition. The drug concentrations were measured over 9 timepoints collected between 0 and 24 hours of incubation by liquid-chromatography-coupled mass spectrometry (LC–MS). As to conditions: 2 µM.

Data set [19] can be described thus: The drug is tested on Z-026 corresponding to metagenome with ENA study accession number: PRJEB37062 and ENA sample accession number: ERS12561825 for biotransformation under anaerobic condition. The drug concentrations were measured over 9 timepoints collected between 0 and 24 hours of incubation by liquid-chromatography-coupled mass spectrometry (LC–MS). As to conditions: 2 µM.

Data set [20] in a line: The drug is tested on WLS-170 corresponding to human gut metagenome with ENA study accession number: PRJEB37062 and ENA sample accession number: ERS12561762 for biotransformation under anaerobic condition. The drug concentrations were measured over 9 timepoints collected between 0 and 24 hours of incubation by liquid-chromatography-coupled mass spectrometry (LC–MS). As to conditions: 2 µM.

The structures appear in SMILES notation.
Further: call rule not given here.

For the compound `CN1CCC(=C2c3ccccc3CCc3cccnc32)CC1.O=C(O)/C=C\C(=O)O.O=C(O)/C=C\C(=O)O` [AZATADINE MALEATE], the “Bacterial Biotransformation” value in data set [1], in data set [2], in data set [3], in data set [4], in data set [5] and in data set [6] was “Compound NOT metabolized” throughout. The “Bacterial Biotransformation” value in data set [7], in data set [8], in data set [9], in [10], in data set [11] and in data set [12] was “Compound NOT metabolized” in each case. The “Bacterial Biotransformation” value in data set [13], in [14], in data set [15], in data set [16], in data set [17] and in data set [18] was “Compound NOT metabolized” in each case. Moreover, the “Bacterial Biotransformation” value in [19] and in [20] was “Compound NOT metabolized” each time.
For the compound `CC(=O)OCC(=O)[C@@]1(O)[C@@H](C)C[C@H]2[C@@H]3CCC4=CC(=O)C=C[C@]4(C)[C@@]3(F)[C@@H](O)C[C@@]21C` [BETAMETHASONE ACETATE], the “Bacterial Biotransformation” value in data set [1] is reported as “Compound metabolized”; in [2], “Compound NOT metabolized”; in data set [3], “Compound metabolized”; in [4], “Compound metabolized”; in data set [5] it was “Compound metabolized”; in [6] it was “Compound metabolized”. For the same compound, the “Bacterial Biotransformation” value is reported as “Compound metabolized” in [7]; “Compound NOT metabolized” in [8]; “Compound NOT metabolized” in [9]; “Compound metabolized” in data set [10]; “Compound metabolized” in data set [11]; “Compound NOT metabolized” in data set [12]. The “Bacterial Biotransformation” value is reported as “Compound metabolized” in data set [13]; “Compound metabolized” in data set [14]; “Compound metabolized” in data set [15]; “Compound metabolized” in [16]; “Compound NOT metabolized” in data set [17]; “Compound NOT metabolized” in data set [18]. Further, the “Bacterial Biotransformation” value in [19] and in data set [20] was “Compound metabolized” throughout.
In the case of `CC(C)NCC(O)COc1ccc(CCOCC2CC2)cc1` (stereo not given) [BETAXOLOL], the “Bacterial Biotransformation” value is recorded as “Compound NOT metabolized” in data set [1]; “Compound NOT metabolized” in data set [2]; “Compound metabolized” in [3]; “Compound metabolized” in data set [4]; “Compound NOT metabolized” in data set [5]; “Compound metabolized” in data set [6]. Moreover, the “Bacterial Biotransformation” value was “Compound NOT metabolized” in data set [7]; “Compound NOT metabolized” in [8]; “Compound NOT metabolized” in [9]; “Compound metabolized” in [10]; “Compound NOT metabolized” in data set [11]; “Compound NOT metabolized” in [12]. Moreover, the “Bacterial Biotransformation” value in data set [13], in data set [14], in data set [15], in data set [16], in data set [17] and in data set [18] was “Compound NOT metabolized” each time. For the same compound, the results for the “Bacterial Biotransformation” value in [19] and in data set [20] were “Compound NOT metabolized” and “Compound metabolized”, respectively.
Regarding `CC(C)(Oc1ccc(CCNC(=O)c2ccc(Cl)cc2)cc1)C(=O)O` [BEZAFIBRATE], the “Bacterial Biotransformation” value in data set [1] is recorded as “Compound NOT metabolized”; in [2], “Compound metabolized”; in [3], “Compound metabolized”; in data set [4], “Compound metabolized”; in data set [5] it was “Compound NOT metabolized”; in data set [6] it was “Compound metabolized”. The “Bacterial Biotransformation” value was “Compound metabolized” in data set [7]; “Compound NOT metabolized” in [8]; “Compound NOT metabolized” in data set [9]; “Compound metabolized” in data set [10]; “Compound metabolized” in [11]; “Compound NOT metabolized” in [12]. For the same compound, the “Bacterial Biotransformation” value in [13] is “Compound metabolized”; in data set [14] it was “Compound metabolized”; in [15], “Compound NOT metabolized”; in [16], “Compound NOT metabolized”; in data set [17], “Compound NOT metabolized”; in data set [18], “Compound NOT metabolized”. For the same compound, the “Bacterial Biotransformation” value is reported as “Compound NOT metabolized” in data set [19] and “Compound metabolized” in data set [20].
On to `CC(O)(CS(=O)(=O)c1ccc(F)cc1)C(=O)Nc1ccc(C#N)c(C(F)(F)F)c1` (stereo not given) [BICALUTAMIDE], for which the “Bacterial Biotransformation” value in data set [1], in data set [2], in data set [3], in [4], in [5] and in [6] was “Compound NOT metabolized” in each case. In addition, the “Bacterial Biotransformation” value in data set [7], in data set [8], in data set [9], in data set [10], in [11] and in data set [12] was “Compound NOT metabolized” each time. The “Bacterial Biotransformation” value in [13], in [14], in data set [15], in data set [16], in [17] and in data set [18] was “Compound NOT metabolized” throughout. Also, the “Bacterial Biotransformation” value in data set [19] and in data set [20] was “Compound NOT metabolized” throughout.
